{"source": "paper PMC5055185", "about": "“Dual pharmacological inhibition of glutathione and thioredoxin systems synergizes to kill colorectal carcinoma stem cells” (Cancer Medicine, 2016)", "assay_type_in_all_cases": "cell-based, human", "key": {"[1]": {"tested_on": "TIG‐111 dermal fibroblasts", "experiment": "cell survival (trypan blue exclusion, 5 days), TIG-111", "conditions": "for pIC50: TIG111, cellular survival, 5 days; for Ratio of survived cells (Drugs treated/Untreated), Average / Ratio of survived cells (Drugs treated/Untreated), single passage points #: TIG-111", "method": "(§1) Modified procedures of CTOS culture 16 were described elsewhere 10. […] The culture medium was serum‐free advanced DMEM/F‐12 (GIBCO, Waltham, MA) supplemented with FGF‐2 (10 ng/mL, ReproCell, Yokohama, Japan), penicillin ([…], Wako, Osaka, Japan), streptomycin (0.1 mg/mL,Wako), gentamicin (50 μg/mL, Wako), and fungizone (0.25 μg/mL, GIBCO). DLD‐1 and HCT116 CRC cell lines were purchased from JCRB Cell Bank (Osaka, Japan) and RIKEN BioResource Center (Ibaraki, Japan), respectively. In order to estimate pharmacological side effects against normal tissues, human diploid fibroblasts were purchased (JCRB Cell Bank) as model cells. The origins of the fibroblasts were as follows: OUMS‐36 (embryo), TIG‐3 (fetal lung), TIG‐111 (dermal fibroblasts [DFs] from individual), TIG‐119 (DFs from individual), and TIG‐102 (DFs from individual). Adult DFs were purchased from Kurabo (Osaka, Japan). CRC cell lines and fibroblasts were maintained under supplier‐recommended culture conditions. Since the culture conditions are different between fibroblasts and CTOSs, we need to be cautious about the interpretation of data (i.e., lateral comparison between them). […] Colorectal CTOSs display augmented survival through maintaining epithelial structure with E‐cadherin 16. On the other hand, the establishment of conventional cell lines (adherent culture) are much less efficient because constant cell division and autonomous survival are required for the procedure. When we choose CTOSs instead of cancer cell lines, we lose the equivalent condition (adherent culture) as a trade‐off.\n(§2) Each drug's half‐maximal inhibitory concentration (IC50) was calculated based on live cell number ratios (drug treated/untreated × 100%) obtained from serial dilution of drug concentration. The length of drug exposure was 5 days. Each number of live cells was counted automatically by trypan blue exclusion (LUNA automated cell counter, Logos Biosystems, Anyang, South Korea). Cancer spheroids were dispersed with serial treatments (20 min each) of TrypLE™ and Accumax™. Thus, IC50 was determined based on cellular survival, but not on proliferation. We chose the survival index instead of the speed of growth because CTOSs in vitro show very slow proliferation (quiescence), which is one of the hallmarks of CSCs 2. The IC50 values of fibroblasts were accordingly determined based on cellular survival index during quiescence (by contact inhibition). […] To quantify the synergism of two distinct drugs, Combination Index (CI) was calculated 21. A CI value of about 1 (0.90–1.10) was defined as nearly additive and CI values more than (>1.10) and less than (<0.90) were defined as antagonism and synergism, respectively. IC50 and CI were determined using CompuSyn software (ComboSyn, Paramus, NK)."}, "[2]": {"tested_on": "CTOS76 colorectal cancer tissue‐originated spheroids", "experiment": "cell survival (trypan blue exclusion, 5 days), CTOS76", "conditions": "for pIC50: CTOS76, cellular survival, 5 days", "description": "All experimental procedures were approved by the animal facility at Dokkyo Medical University (ID: 951) and were described elsewhere 10. The existence of CSCs has been experimentally proven through serial xenotransplantation and tumorigenesis 2, 14. […] These subcutaneous tumors were again subjected to enzymatic dissociation and some of the tumor cells were subcutaneously transplanted into other mice. […] Seven cases (CTOS:40, 42, 68, 71, 76, 86, 88) were used for in vitro experiments.\nas §1\nEach drug's half‐maximal inhibitory concentration (IC50) was calculated based on live cell number ratios (drug treated/untreated × 100%) obtained from serial dilution of drug concentration. The length of drug exposure was 5 days. Each number of live cells was counted automatically by trypan blue exclusion (LUNA automated cell counter, Logos Biosystems, Anyang, South Korea). Cancer spheroids were dispersed with serial treatments (20 min each) of TrypLE™ and Accumax™. Thus, IC50 was determined based on cellular survival, but not on proliferation."}, "[3]": {"tested_on": "HCT116 CRC cell line", "experiment": "intracellular ROS, CellROX Deep Red flow cytometry, HCT116", "conditions": "treated 1 h (menadione 100 μmol/L, 30 min)", "method": "In order to estimate the effect of each inhibitor described above, intracellular reactive oxygen species (ROS) were measured using CellROX™ Deep Red reagent (Molecular Probes). Briefly, cells were seeded on 6‐well plates at 1 × 10^6 cells per well. After cells reached 90% confluence, cells were treated with designated reagents for 1 h. CellROX™ Deep Red reagent was added at a final concentration of 5 μmol/L to the culture medium and then incubated for 30 min at 37°C. Subsequently, the medium was removed and the cells were washed with PBS and detached using 0.25% trypsin‐EDTA. The resulting fluorescence was measured using a FACS Calibur flow cytometer (Becton Dickinson, Franklin Lakes, NJ). Menadione (100 μmol/L) was added 30 min before CellROX™ Deep Red reagent treatment as a reference ROS inducer. […] CD44v9 positivity of CTOS cells was analyzed as follows: Cancer spheroids were dispersed with serial treatments of TrypLE™ (20 min, GIBCO) and Accumax™ (10 min, Innovative Cell Technologies, San Diego, CA). Cell surface CD44v9 was stained with CD44v9 antibody (Cosmobio) as well as PE‐conjugated anti‐rat IgG2a (Becton Dickinson). The fluorescence was measured using a FACS Calibur flow cytometer (Becton Dickinson). Since CTOSs contained abundant auto‐fluorescent cells, we defined FL2^+FL1^− cells as authentic PE‐positive (Fig. S4). Thus, CD44v9‐positive rate was defined as FL2^+FL1^−/total live cells and CD44v9‐positive fraction was further gated and split between CD44v9^low and CD44v9^high (Fig. S4), to calculate the mean fluorescent intensity of CD44v9^high fraction.\nOne hour after each drug treatment, cells were stained with CellROX DeepRed and intracellular ROS were quantified with FACS. Upper: histogram of fluorescent signal is represented. Lower. representative mean fluorescent intensity scores are shown. Note that without drug treatment (Control), intracellular ROS is higher in OUMS36 and TIG3 (embryonic fibroblasts) but lower in DLD-1 and HCT116 (CRC cell lines). ROS in DLD-1 was increased by auranofin. ROS in HCT116 was increased by all the inhibitors tested. Menadione was used as a reference chemical to increase ROS."}, "[4]": {"tested_on": "TIG‐3 embryonic fibroblasts (fetal lung)", "experiment": "cell survival (trypan blue exclusion, 5 days), TIG-3", "conditions": "for pIC50: TIG3, cellular survival, 5 days; for Ratio of survived cells (Drugs treated/Untreated), Average / Ratio of survived cells (Drugs treated/Untreated), single passage points #: TIG-3", "method": "as §1, §2"}, "[5]": {"tested_on": "TIG‐119 dermal fibroblasts", "experiment": "cell survival (trypan blue exclusion, 5 days), TIG-119", "conditions": "for pIC50: TIG119, cellular survival, 5 days", "method": "as §1, §2"}}, "note": "pIC50: −log10 of the molar value. Several values for one entry are separate records, joined by “and”; a condition that tells them apart may be missing. Identical values can stand only once.", "data": [{"compound": "CC[PH](CC)(CC)[Au][S][C@@H]1O[C@H](COC(C)=O)[C@@H](OC(C)=O)[C@H](OC(C)=O)[C@H]1OC(C)=O", "note": "[Aura, Auranofin]", "values": [{"measurement": "pIC50", "setting": "[1]", "result": 5.76}, {"measurement": "Ratio of survived cells (Drugs treated/Untreated), Average", "setting": "[1]; Aura 1 microM", "result": 94.25, "unit": "%"}, {"measurement": "Ratio of survived cells (Drugs treated/Untreated), Average", "setting": "[1]; Aura 2 microM", "result": 41.75, "unit": "%"}, {"measurement": "Ratio of survived cells (Drugs treated/Untreated), Average", "setting": "[1]; Aura 4 microM", "result": 0, "unit": "%"}, {"measurement": "Ratio of survived cells (Drugs treated/Untreated), single passage points #", "setting": "[1]; Aura 4 microM", "result": 0, "unit": "%"}, {"measurement": "pIC50", "setting": "[2]", "result": 5.55}, {"measurement": "Ratio of survived cells (Drugs treated/Untreated), Average", "setting": "[2]; CTOS#76, Aura 1 microM", "result": 68.4, "unit": "%"}, {"measurement": "Ratio of survived cells (Drugs treated/Untreated), Average", "setting": "[2]; CTOS#76, Aura 2 microM", "result": 56.4, "unit": "%"}, {"measurement": "Ratio of survived cells (Drugs treated/Untreated), Average", "setting": "[2]; CTOS#76, Aura 4 microM", "result": 39.5, "unit": "%"}, {"measurement": "Ratio of survived cells (Drugs treated/Untreated), single passage points #", "setting": "[2]; CTOS#76, Aura 4 microM", "result": "36% and 56% and 30%"}, {"measurement": "intracellular ROS response", "setting": "[3]", "result": "increase of ROS"}, {"measurement": "pIC50", "setting": "[4]", "result": 5.71}, {"measurement": "Ratio of survived cells (Drugs treated/Untreated), Average", "setting": "[4]; Aura 1 microM", "result": 83.1429, "unit": "%"}, {"measurement": "Ratio of survived cells (Drugs treated/Untreated), Average", "setting": "[4]; Aura 2 microM", "result": 61.4286, "unit": "%"}, {"measurement": "Ratio of survived cells (Drugs treated/Untreated), Average", "setting": "[4]; Aura 4 microM", "result": 9.571, "unit": "%"}, {"measurement": "pIC50", "setting": "[5]", "result": 5.93}, {"measurement": "Ratio of survived cells (Drugs treated/Untreated), Average", "setting": "[5]; TIG-119, Aura 1 microM", "result": 53.3333, "unit": "%"}, {"measurement": "Ratio of survived cells (Drugs treated/Untreated), Average", "setting": "[5]; TIG-119, Aura 2 microM", "result": 31.6667, "unit": "%"}, {"measurement": "Ratio of survived cells (Drugs treated/Untreated), Average", "setting": "[5]; TIG-119, Aura 4 microM", "result": 5, "unit": "%"}]}, {"compound": "COc1cc(/C=C/C(=O)N2CCC=CC2=O)cc(OC)c1OC", "note": "[Pipe, Piperlongumine]", "values": [{"measurement": "pIC50", "setting": "[1]", "result": 5.09}, {"measurement": "Ratio of survived cells (Drugs treated/Untreated), Average", "setting": "[1]; Pipe 2.5 microM", "result": 110, "unit": "%"}, {"measurement": "Ratio of survived cells (Drugs treated/Untreated), single passage points #", "setting": "[1]; Pipe 2.5 microM", "result": "85% and 103% and 123% and 129%"}, {"measurement": "Ratio of survived cells (Drugs treated/Untreated), Average", "setting": "[1]; Pipe 5 microM", "result": 95, "unit": "%"}, {"measurement": "Ratio of survived cells (Drugs treated/Untreated), single passage points #", "setting": "[1]; Pipe 5 microM", "result": "69% and 82% and 125% and 104%"}, {"measurement": "Ratio of survived cells (Drugs treated/Untreated), Average", "setting": "[1]; Pipe 10 microM", "result": 19.75, "unit": "%"}, {"measurement": "pIC50", "setting": "[2]", "result": 5.15}, {"measurement": "Ratio of survived cells (Drugs treated/Untreated), Average", "setting": "[2]; CTOS#76, Pipe 2.5 microM", "result": 81.75, "unit": "%"}, {"measurement": "Ratio of survived cells (Drugs treated/Untreated), Average", "setting": "[2]; CTOS#76, Pipe 5 microM", "result": 73, "unit": "%"}, {"measurement": "Ratio of survived cells (Drugs treated/Untreated), Average", "setting": "[2]; CTOS#76, Pipe 10 microM", "result": 32.3333, "unit": "%"}, {"measurement": "intracellular ROS response", "setting": "[3]", "result": "increase of ROS"}, {"measurement": "pIC50", "setting": "[4]", "result": 4.97}, {"measurement": "Ratio of survived cells (Drugs treated/Untreated), Average", "setting": "[4]; Pipe 2.5 microM", "result": 111.833, "unit": "%"}, {"measurement": "Ratio of survived cells (Drugs treated/Untreated), single passage points #", "setting": "[4]; Pipe 2.5 microM", "result": "107% and 154% and 95% and 81% and 127%"}, {"measurement": "Ratio of survived cells (Drugs treated/Untreated), Average", "setting": "[4]; Pipe 5 microM", "result": 79.5, "unit": "%"}, {"measurement": "Ratio of survived cells (Drugs treated/Untreated), single passage points #", "setting": "[4]; Pipe 5 microM", "result": "82% and 60% and 112% and 58% and 92% and 73%"}, {"measurement": "Ratio of survived cells (Drugs treated/Untreated), Average", "setting": "[4]; Pipe 10 microM", "result": 64, "unit": "%"}, {"measurement": "pIC50", "setting": "[5]", "result": 5.13}, {"measurement": "Ratio of survived cells (Drugs treated/Untreated), Average", "setting": "[5]; TIG-119, Pipe 2.5 microM", "result": 95.75, "unit": "%"}, {"measurement": "Ratio of survived cells (Drugs treated/Untreated), single passage points #", "setting": "[5]; TIG-119, Pipe 2.5 microM", "result": "83% and 121% and 96%"}, {"measurement": "Ratio of survived cells (Drugs treated/Untreated), Average", "setting": "[5]; TIG-119, Pipe 5 microM", "result": 80.75, "unit": "%"}, {"measurement": "Ratio of survived cells (Drugs treated/Untreated), Average", "setting": "[5]; TIG-119, Pipe 10 microM", "result": 27, "unit": "%"}]}]}
